Laboratory results taken from article PMC5329948, “Caspase vinyl sulfone small molecule inhibitors prevent axonal degeneration in human neurons and reverse cognitive impairment in Caspase-6-overexpressing mice” (Molecular Neurodegeneration, 2017).

System: primary human CNS neurons
Assay: Cellular toxicity in primary human neurons (phase contrast, MTT)
Type: cell-based
Conditions: for toxicity in human neurons: concentrations up to 100 μM; for neuronal morphology / mitochondrial reductive potential (MTT): primary human neurons; for neuronal morphology: 100 μM, 24 h; for mitochondrial reductive potential (MTT): 24 or 48 h
Experimental: HCT116: Human colon carcinoma (HCT116) cells (ATCC, Manassas, VA, USA) were cultured in McCoy’s 5A modified media (Thermo Fisher Scientific, Waltham, MA, USA) supplemented with 10% fetal bovine serum (Thermo Fisher Scientific, Waltham, MA, USA) and transfected with 1 μg of pCep4βCasp6p20p10 mixed with 8 μg of polyethyleneimine (Polysciences Inc., Warrington, PA, USA). Protein expression was allowed for 24 h before treating with vehicle (PBS), 100 μM NWL-117, or 100 μM NWL-154 for 2 h. For NWL inhibitor kinetic experiments, 100 μM of NWL-117 or NWL-154 was added at 120, 90, 60, 30, 15, or 0 min before harvest. […] For recovery time course experiments, after the initial treatment with 100 μM of NWL-117 or −154 for 2 h, the media was replaced with fresh media for 120, 90, 60, 30, 15, or 0 min before harvest. Primary Human CNS neurons: Cortical tissues were obtained from the Birth Defects Research Laboratory (BDRL, University of Washington, Seattle, USA) in accordance with NIH ethical guidelines approved by McGill University’s institutional review board and primary neurons cultured as previously described. Primary human neurons were seeded on poly-L-lysine-coated (5 μg/mL) 6-well plates or glass coverslips coated with poly-L-lysine and laminin (5 μg/mL) (Sigma-Aldrich, Oakville, ON, CA) at a density of 3x10^6 cells/mL. Primary human neurons were pre-treated with 0.1 μM epoxomicin (Enzo LifeSciences, Farmingdale, NY, USA) and 100 μM NWL-117, 100 μM NWL-154, or vehicle (PBS) for 2 h, and serum-deprived for 2 h in the presence of epoxomicin and vehicle (PBS), 100 μM NWL-117, or 100 μM NWL-154 before harvesting or measuring caspase activity with FLICA, as described below.
Immunofluorescence on human neuron cultures: Primary human neurons were pre-treated 2 h and serum-deprived in the presence of 100 μM NWL-117, 100 μM NWL-154, or 5 μM Z-VEID-fmk (Biomol, Plymouth meeting, PA, USA) for 24 h. Following treatment, human neurons were washed once with warm PBS, fixed for 20 min at room temperature with 4% paraformaldehyde (Sigma, Oakville, ON, CA)/4% sucrose (BioRad, Mississauga, ON, CA) for TubΔCasp6 or 2% formaldehyde (Thermo Fisher Scientific, Waltham, MA, USA)/0.2% glutaraldehyde (Sigma, Oakville, ON, CA) for pBudEGFP or pBudEGFP/APP^WT-transfected neurons, incubated in permeabilization buffer (0.1% Triton X-100, 0.1 sodium citrate) for 1 min on ice, washed with PBS, blocked for 20 min at room temperature with 10% goat serum (Sigma, Oakville, ON, CA), and incubated with primary antibodies diluted in 10% goat serum in PBS overnight at 4 °C in a humid chamber. The glass coverslips were washed with PBS, and incubated with goat anti-rabbit secondary antibody coupled to Alexa 488 (Molecular Probes, Eugene, OR, USA) or Cy3 (GE Healthcare Life Sciences, Baie D’Urfe, QC, CA) and Hoechst 33342 (ImmunoChemistry, Bloomington, MN, USA) at 1 μg/mL for 2 h at room temperature. The coverslips were washed with PBS and rinsed in Milli-Q water before mounting in fluoromount (Dako, Burlington, ON, CA). Images were acquired by fluorescence microscopy and quantified using the ImageJ software (NIH, Bethesda, MD, USA) for TubΔCasp6 and manually counted for transfected EGFP(+)-neurons. Time lapse-imaging by live fluorescence microscopy: Primary human neurons were transfected with gold beads coated with pBudEGFP or pBudEGFP/APP^WT using a Helios Gene gun (BioRad, Mississauga, ON, CA). Briefly, cells were pre-treated with 100 μM NWL inhibitors or 5 μM Z-VEID-fmk for 2 h. The media was removed and the neurons were shot at 100 psi. The media was quickly replaced with the inhibitors present. The plasmid was expressed for 16 h before setting up the fluorescence microscope (Nikon Eclipse Ti) to acquire 20 images per condition every hour for 72 h at 37 °C with 5% CO2. The images were analyzed by counting the total number of neurons (50–100 neurons per condition per independent experiment), and the number of beaded, swollen soma, and healthy neurons. […]

SMILES	toxicity in human neurons	neuronal morphology	mitochondrial reductive potential (MTT)
CCC(C)[C@H](NC(=O)[C@H](CCC(=O)O)NC(=O)[C@@H](NC(=O)OCc1ccccc1)C(C)C)C(=O)N[C@H](/C=C(\Cl)S(C)(=O)=O)CC(=O)O (stereo partly drawn) [NWL-154]	neither NWL-117 nor −154 is toxic	did not change neuronal morphology	comparable to vehicle-treated neurons
CCC(C)[C@H](NC(=O)[C@H](CCC(=O)O)NC(=O)[C@@H](NC(=O)OCc1ccccc1)C(C)C)C(=O)N[C@H](/C=C/S(C)(=O)=O)CC(=O)O (stereo partly drawn) [NWL-117]	neither NWL-117 nor −154 is toxic	did not change neuronal morphology	comparable to vehicle-treated neurons
